The values below come from US11426473B2, “Nitrogen-containing compound or salt thereof, or metal complex thereof” (FUJIFILM Corporation, priority 2013, dated 2022).

Data set [1] is described as follows: Radiochemical purity after standing at room temperature. It is filed as physicochemical. The conditions noted are these: immediately after preparation and after standing at room temperature for 22 hours. The procedure: To a mixed solution of compound (P2) (8.5 μg) and a 0.2 mol/L sodium acetate buffer solution (pH 4.0) (1.5 mL), a [^111In] indium chloride solution (80 MBq, 100 μL) was added. The mixture was heated at 100° C. for 15 minutes and then left at room temperature for 5 minutes to obtain radiolabeled compound [^111In]-(P2). […] Its radiochemical purity was 95% or more both immediately after preparation and after standing at room temperature for 24 hours.
To a mixed solution of compound (P2) (79 μg), gentisic acid (1.8 mg), a 0.6 mol/L sodium acetate buffer solution (pH 4.0, 120 μL), and a 0.4 mol/L aqueous sodium hydroxide solution (24 μL), a [^90Y] yttrium chloride solution (700 MBq, 240 μL) was added. The mixture was heated at 100° C. for 20 minutes and then left at room temperature for 5 minutes to obtain radiolabeled compound [^90Y]-(P2). […] Its radiochemical purity was 95% or more both immediately after preparation and after standing at room temperature for 24 hours.
To a mixed solution of compound (P2) ([…]) and a 0.2 mol/L sodium acetate buffer solution (pH 4.0, 219 μL), a [^64Cu] copper chloride solution (pH 5, 35 MBq, 55 μL) was added. The mixture was heated at 100° C. for 15 minutes and then left at room temperature for 5 minutes to obtain radiolabeled compound [^64Cu]-(P2). […] Its radiochemical purity was 90% or more both immediately after preparation and after standing at room temperature for 22 hours.
To a mixed solution of compound (Aa7) (4.2 μg), gentisic acid (1 mg), and a 0.2 mol/L sodium acetate buffer solution (pH 4.0) (5.0 μL), [^64Cu] copper chloride in a 0.2 mol/L sodium acetate buffer solution (pH 4.0) (40 MBq, 155 μL) was added. The mixture was heated at 100° C. for 15 minutes and then left at room temperature for 5 minutes to obtain radiolabeled compound [^64Cu]-(Aa7). […] Its radiochemical purity was 90% or more both immediately after preparation and after standing at room temperature for 24 hours.

Data set [2] deals with U87MG cells subcutaneous tumor. In words: Concentration of radioactivity in tumor of labeled compounds (Test Example 4). Conditions: tail vein, 111In 740 kBq, 64Cu and 90Y 500 kBq. It is filed as in vivo, mouse. Here is the method:
U87MG cells were subcutaneously transplanted at 1×10^7 cells/mouse to the right flank of Balb/cAJcl-nu/nu (CLEA Japan, Inc. or Japan SLC, Inc., 6 to 9 weeks old). After 2 to 3 weeks, the mice were divided into groups each involving 3 individuals per point in time when their tumors became 200 to 500 mm^3. The ^111In-labeled compound (740 kBq) was administered to the tail veins of the mice.
After a given time, the animals were sacrificed to extract their tumors. The weights of the tumors were measured, and the radioactivity was measured using a gamma counter to calculate the concentration of radioactivity in the tumors (% ID/g). In the same way as above, the concentration of radioactivity in the tumors (% ID/g) was calculated for the ^64Cu-labeled compound (500 kBq) and the ^90Y-labeled compound (500 kBq).

Data set [3] relates to U87MG cells subcutaneous tumor. Put plainly: Imaging of integrin-expressing tumor by PET. The conditions noted are these: at the time of anatomy (48 hours after administration), 4.8 MBq/mouse tail vein. It is filed as in vivo. The procedure:
U87MG cells were subcutaneously transplanted at 1×10^7 cells/mouse to the right flank of Balb/cAJcl-nu/nu (CLEA Japan, Inc. or Japan SLC, Inc., male, 6 to 9 weeks old). After 2 weeks, the radiolabeled compound [^64Cu]-(P2) was administered at 4.8 MBq/mouse to the tail veins of mice whose tumors became 250 to 650 mm^3. After 1, 4, 24, and 48 hours, the images were taken in microPET/CT (Inveon, Siemens AG) under isoflurane anesthesia. After the imaging at 48 hours after administration, the mice were euthanized by the collection of the whole blood from the postcava under deep anesthesia with isoflurane, followed by tumor extraction. The weights of the tumors were measured, and the radioactivity was measured using a gamma counter to calculate the concentration of radioactivity in the tumors (% ID/g). In the same way as above, [^64Cu]-(Aa7), [^64Cu]-(Ab9-a), and [^64Cu]-(Ab9-b) were imaged. However, the concentration of radioactivity in the tumors was not calculated. The tumor accumulation was confirmed for all of the compounds 1 hour after administration, and the tumors were visualized up to 48 hours later. […] The concentration of radioactivity in the tumors was 5.6% ID/g at the time of anatomy (48 hours after administration).

Data set [4] can be described thus: Absorbed doses in each organ in humans calculated with OLINDA/EXM 1.0 from monkey organ distribution. It is filed as in vivo. Conditions: calculated with OLINDA/EXM 1.0 from monkey imaging with [111In]-(P2). Here is the method:
Blood kinetic parameters were calculated with OLINDA/EXM 1.0 from the blood concentration of radioactivity by blood collection over time from a cynomolgus monkey using [^111In]-(P2). Also, absorbed doses in each organ in the case of administration to humans were calculated with OLINDA/EXM 1.0 from organ distribution by imaging using [^111In]-(P2). The radiolabeled compound [^111In]-(P2) (98 MBq/[…]) was administered to a cynomolgus monkey (Hamri Co., Ltd., male, 3 years old, 3.4 kg) under anesthesia. After the administration, blood collection and imaging with a gamma camera were performed over time. The blood collection was carried out 10 minutes, 30 minutes, 60 minutes, 2 hours, 4 hours, 5 hours, 6 hours, 24 hours, 48 hours, 72 hours, and 144 hours after administration. The imaging was carried out 1, 2, 4, 6, 24, 48, 72, and 144 hours after administration with a gamma camera (Symbia, Siemens AG) to take planar images. The anesthesia was carried out using 20 mg/kg ketamine before administration of [^111In]-(P2) and maintained by inhalation anesthesia (2 to 3% isoflurane, 5 to 8 L/min) until the completion of the imaging at 6 hours after administration. At or after 24 hours after administration, blood collection and imaging were performed by the introduction of 20 mg/kg ketamine and 2 mg/kg xylazine. […] The blood kinetic parameters are shown below.

The subject of data set [5] is A498 (human renal cell cancer) subcutaneous tumor. Put plainly: Tumor accumulation of [111In]-(A8), tissue extraction and radioactivity measurement, A498. The conditions noted are these: 740 kBq tail vein. It is filed as in vivo, mouse. The procedure:
(§1) SK-MEL-28 (human melanoma), A375 (human melanoma), A498 (human renal cell cancer), Caki-2 (human renal cell cancer), HCT116, U87MG, and T98G cells were studied as follows: the cells of each line were cultured and subcutaneously transplanted at 1×10^7 cells/mouse to the right flank of Balb/cAJcl-nu/nu (CLEA Japan, Inc., male, 6 to 8 weeks old). The mice were raised until their tumor volumes reached 85 to 1,075 mm^3. Then, the mice were allocated at the time of anatomy to groups each involving 3 individuals so as to prevent the tumor volumes from disproportioning among the groups. Then, the radiolabeled compound [^111In]-(A8) (740 kBq) was administered to the tail veins of the mice. The animals were sacrificed at the time of anatomy to extract their tumors. The weights of the tumors were measured, and then, the radioactivity was measured using a gamma counter to calculate the concentration of radioactivity in the tumors (% ID/g: % injected dose/g).

The subject of data set [6] is U87MG (human glioblastoma) subcutaneous tumor. In words: Tumor accumulation of [111In]-(A8), tissue extraction and radioactivity measurement, U87MG. It is filed as in vivo, mouse. The conditions noted are these: 740 kBq tail vein. The procedure:
as §1

Data set [7] concerns T98G (human glioblastoma) subcutaneous tumor. Put plainly: Tumor accumulation of [111In]-(A8), tissue extraction and radioactivity measurement, T98G. Conditions: 740 kBq tail vein. It is filed as in vivo, mouse. The procedure:
as §1

Data set [8] has as its system HCT116 (human colorectal cancer) subcutaneous tumor. Put plainly: Tumor accumulation of [111In]-(A8), tissue extraction and radioactivity measurement, HCT116. The conditions noted are these: 740 kBq tail vein. It is filed as in vivo, mouse. The procedure: as §1
For data set [9], the system named is A375 (human melanoma) subcutaneous tumor. In words: Tumor accumulation of [111In]-(A8), tissue extraction and radioactivity measurement, A375. It is filed as in vivo, mouse. The conditions noted are these: 740 kBq tail vein. The procedure: as §1
In data set [10] the test system is Caki-2 (human renal cell cancer) subcutaneous tumor. Put plainly: Tumor accumulation of [111In]-(A8), tissue extraction and radioactivity measurement, Caki-2. It is filed as in vivo, mouse. The conditions noted are these: 740 kBq tail vein. Here is the method:
as §1

Data set [11] relates to SK-MEL-28 (human melanoma) subcutaneous tumor. Put plainly: Tumor accumulation of [111In]-(A8), tissue extraction and radioactivity measurement, SK-MEL-28. It is filed as in vivo, mouse. Conditions: 740 kBq tail vein. Here is the method: as §1

Some results are limits rather than exact numbers.

Take `Cc1cc(OCCCC(=O)NCCNC(=O)[C@H](CS(=O)(=O)O)NC(=O)CN2CCN(CC(=O)[O-])CCN(CC(=O)[O-])CCN(CC(=O)O)CC2)cc(C)c1S(=O)(=O)N[C@@H](CNC(=O)CCCCc1ccc2c(n1)NCCC2)C(=O)O.[64Cu+2]` [[^64Cu]-(P2)]: the “radiochemical purity after standing” value in data set [1] is recorded as not below 90%. For the same compound, the “Concentration of radioactivity in tumor” value in data set [2] (4 hours later) came to 9.25 % ID/g. Also, the “Concentration of radioactivity in tumor” value in data set [2] (24 hours later) was 8.48 % ID/g. Also, the “concentration of radioactivity in the tumors” value in [3] is recorded as 5.6 % ID/g. Moreover, in [4], the “Absorbed dose, Brain” value is 0.11 mGy/MBq; the “Absorbed dose, Kidney” value is 0.69 mGy/MBq; the “Absorbed dose, Liver” value is recorded as 0.09 mGy/MBq; the “Absorbed dose, Lung” value is 0.08 mGy/MBq. In data set [4], the “Absorbed dose, Red bone marrow” value was 0.01 mGy/MBq; the “Absorbed dose, Small intestine” value was 0.06 mGy/MBq; the “Absorbed dose, Whole body” value is given as 0.02 mGy/MBq.

As to `Cc1cc(OCCCC(=O)NCCNC(=O)C(CS(=O)(=O)O)NC(=O)C(CS(=O)(=O)O)NC(=O)CN2CCN(CC(=O)[O-])CCN(CC(=O)[O-])CCN(CC(=O)[O-])CC2)cc(C)c1S(=O)(=O)NC(CNC(=O)c1ccc(CCc2ccc3c(n2)NCCC3)cc1)C(=O)O.[111In+3]` (stereo not drawn) [[^111In]-(A8)], the “Concentration of radioactivity in tumor” value stood at 13.1 % ID/g in data set [5] (A498, 4 hours later); 7.9 % ID/g in data set [5] (A498, 24 hours later); 12.0 % ID/g in data set [6] (4 hours later); 9.3 % ID/g in data set [6] (24 hours later); 9.48 % ID/g in data set [2] (4 hours later); 12.90 % ID/g in data set [2] (24 hours later). The “Concentration of radioactivity in tumor” value in [7] (4 hours later) is 6.5 % ID/g; in data set [7] (24 hours later), 6.7 % ID/g; in data set [8] (HCT116, 4 hours later) it was 3.1 % ID/g; in data set [8] (HCT116, 24 hours later) it was 2.9 % ID/g; in [9] (A375, 4 hours later), 3.7 % ID/g; in [9] (A375, 24 hours later), 3.8 % ID/g. Further, the “Concentration of radioactivity in tumor” value in [10] (caki-2, 4 hours later) is 6.4 % ID/g; in data set [10] (caki-2, 24 hours later), 8.5 % ID/g; in data set [11] (sk-mel-28, 4 hours later), 2.9 % ID/g; in data set [11] (sk-mel-28, 24 hours later) it was 4.9 % ID/g.
